Where two headings read alike, the source gives them in different places.
Tests used:
ABL1 = target: T1, ABL1 (Homo sapiens, UniProt P00519); assay: Thermal shift assay; format: binding; details: read-out: ΔTm ABL1
T1 construct: purchased in-house thermal shift (DSF) kinase panel (SGC Frankfurt); Promega NanoBRET for AURKA/B/C
T1 sequence (P00519 229-512): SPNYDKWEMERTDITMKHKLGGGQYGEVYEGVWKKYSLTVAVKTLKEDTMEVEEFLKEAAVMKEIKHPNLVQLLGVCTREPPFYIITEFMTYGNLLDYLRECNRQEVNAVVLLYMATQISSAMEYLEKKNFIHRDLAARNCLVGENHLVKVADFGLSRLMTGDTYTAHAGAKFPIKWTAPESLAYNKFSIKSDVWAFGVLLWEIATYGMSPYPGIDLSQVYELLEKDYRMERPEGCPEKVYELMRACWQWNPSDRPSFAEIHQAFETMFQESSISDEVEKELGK

[1] = test system: complex of AURKA and TPX2; set-up: method as in PMID 26732741; details: cited from earlier work
AURKC = target: T2, AURKC (Homo sapiens, UniProt Q9UQB9); assay: NanoBRET assay in HEK293T cells; format: cell-based
T2 construct: full-length wild-type AURKA, AURKB, and AURKC were obtained as plasmids cloned in frame with a C-terminal NanoLuc-fusion; host or cells: HEK293T
T2 sequence (Q9UQB9 1-309): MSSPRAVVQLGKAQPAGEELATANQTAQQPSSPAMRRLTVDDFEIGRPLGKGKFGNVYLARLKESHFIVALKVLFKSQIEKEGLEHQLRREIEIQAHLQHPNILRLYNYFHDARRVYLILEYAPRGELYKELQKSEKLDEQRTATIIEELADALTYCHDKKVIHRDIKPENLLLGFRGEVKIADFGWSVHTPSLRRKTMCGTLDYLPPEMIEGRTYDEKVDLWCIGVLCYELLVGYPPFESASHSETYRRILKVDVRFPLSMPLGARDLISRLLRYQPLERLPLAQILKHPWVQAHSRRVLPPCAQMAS

AURKA = details: cited from earlier work
VRK1 = target: T3, VRK1 (Homo sapiens, UniProt Q99986); assay: Thermal shift assay; format: binding; details: read-out: ΔTm VRK1
T3 construct: purchased in-house thermal shift (DSF) kinase panel (SGC Frankfurt); Promega NanoBRET for AURKA/B/C
T3 sequence (Q99986 1-396): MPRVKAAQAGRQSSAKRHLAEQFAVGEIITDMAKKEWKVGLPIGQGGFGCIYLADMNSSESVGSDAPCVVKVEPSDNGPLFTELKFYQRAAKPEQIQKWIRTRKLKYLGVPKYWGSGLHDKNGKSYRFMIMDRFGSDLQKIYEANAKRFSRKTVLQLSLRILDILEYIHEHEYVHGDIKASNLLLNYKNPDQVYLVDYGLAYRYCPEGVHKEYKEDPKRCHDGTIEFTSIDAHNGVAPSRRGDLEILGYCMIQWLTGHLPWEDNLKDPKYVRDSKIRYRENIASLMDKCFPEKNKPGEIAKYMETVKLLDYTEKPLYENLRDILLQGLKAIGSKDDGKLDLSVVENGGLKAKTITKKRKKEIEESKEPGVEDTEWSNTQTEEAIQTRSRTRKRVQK

CDK2 = target: T4, CDK2 (Homo sapiens, UniProt P24941); assay: Thermal shift assay; format: binding; details: read-out: ΔTm CDK2
T4 construct: purchased in-house thermal shift (DSF) kinase panel (SGC Frankfurt); Promega NanoBRET for AURKA/B/C

HCT116 = test system: HCT116; set-up: method as in PMID 19402633, PMID 30097580; details: colon cancer cell line HCT116; cited from earlier work
[2] = test system: ARID1A-deficient colorectal cancer cells; set-up: method as in PMID 30097580; details: cited from earlier work
[3] = test system: CFL1 phosphorylation in primary IMCD cells; assay: CFL1 phosphorylation, Western blotting; format: cell-based, rat; details: compound 20 µM, 1 h
[4] = NanoBRET, n = 2, mean, Figure 6B, read-out: affinity to intracellular AURKC

Structure (SMILES): CCN1CCN(C(=O)Cc2ccc(Nc3ncc(F)c(Nc4ccc(C(=O)Nc5ccccc5Cl)cc4)n3)cc2)CC1 [Aurora-A inhibitor I, reference compound]
- ΔTm at 10 µM (ABL1): 3.1 °C
- increase of binding to the AURKA-TPX2 complex [1]: 2.4 fold
- IC50 (AURKC): > 50 µM
- IC50 (AURKA; cell-free assay): 0.0034 µM
- selectivity for AURKA over AURKB (AURKA): 1000 fold
- ΔTm at 10 µM (VRK1): 0.4 °C
- ΔTm at 10 µM (CDK2): 1.4 °C
- antiproliferative effects (HCT116): Antiproliferative effects
- cell cycle arrest, multinucleation and apoptosis [2]: G2/M cell cycle arrest, multinucleation, and apoptosis
- CFL1 phosphorylation [3]: Relatively low levels

Structure (SMILES): O=C(Cc1ccc(Nc2ncc(F)c(Nc3ccc(C(=O)Nc4ccccc4Cl)cc3)n2)cc1)NCCN1CCOCC1 [ERJ2-04]
- ΔTm at 10 µM (ABL1; compound 10 µM, n = 3): 1.1 °C
- IC50 (AURKC; [4]): 44.5 µM
- ΔTm at 10 µM (VRK1; compound 10 µM, n = 3): 0.3 °C
- ΔTm at 10 µM (CDK2; compound 10 µM, n = 3): 0.7 °C

Structure (SMILES): NC(=O)Cc1ccc(Nc2ncc(F)c(Nc3ccc(C(=O)Nc4ccccc4Cl)cc3)n2)cc1 [ERJ2-06]
- ΔTm at 10 µM (ABL1; compound 10 µM, n = 3): 1.7 °C
- IC50 (AURKC; [4]): 12 µM
- ΔTm at 10 µM (VRK1; compound 10 µM, n = 3): 0.2 °C
- ΔTm at 10 µM (CDK2; compound 10 µM, n = 3): 4.1 °C

Structure (SMILES): CCN1CCN(C(=O)Cc2ccc(Nc3ncc(F)c(Nc4ccc(C(=O)Nc5ccccc5)cc4)n3)cc2)CC1 [ERJ2-11]
- ΔTm at 10 µM (ABL1; compound 10 µM, n = 3): 3.6 °C
- IC50 (AURKC; [4]): 46 µM
- ΔTm at 10 µM (VRK1; compound 10 µM, n = 3): 0.1 °C
- ΔTm at 10 µM (CDK2; compound 10 µM, n = 3): 2.6 °C

Structure (SMILES): CCN1CCN(C(=O)Cc2ccc(Nc3ncc(F)c(Nc4ccc(C(=O)O)cc4)n3)cc2)CC1 [ERJ2-12]
- ΔTm at 10 µM (ABL1; compound 10 µM, n = 3): 2.6 °C
- IC50 (AURKC; NanoBRET, n = 2, Figure 6B, bounds, read-out: affinity to intracellular AURKC): > 50 µM
- ΔTm at 10 µM (VRK1; compound 10 µM, n = 3): 0.1 °C
- ΔTm at 10 µM (CDK2; compound 10 µM, n = 3): 0.4 °C

— paper PMC8776063, “Aurora Kinase A Is Involved in Controlling the Localization of Aquaporin-2 in Renal Principal Cells” (International Journal of Molecular Sciences, 2022)
